Results: ChEMBL document CHEMBL6074662, “Antibacterial, Antibiofilm, and Anti-inflammatory Effects of a Novel Thrombin-Derived Peptide in Sepsis Models: Insights into Underlying Mechanisms” (J Med Chem, 2024)
Values after ≈ are worked out from the molar mass of the structure shown. Active and inactive are the calls of the source. The rule behind the calls is not given here. Where a SMILES comes first, the peptide text is derived from it. Bridges are numbered along the chain shown (N, C = ends). [ ]: non-standard residue; d: D form. The star is where a group is joined. X1 = CC[C@H](C)CCCCC(=O)*; dDab = NCC[C@@H](N)C(=O)O; Dab = NCC[C@H](N)C(=O)O

Key:
Acinetobacter baumannii [1] = test: Antibacterial activity against carbapenem-resistant Acinetobacter baumannii 1707 incubated for 24 hrs by CLSI based broth microdilution method; assay type: functional, organism-based
Acinetobacter baumannii [2] = test: Antibacterial activity against carbapenem-resistant Acinetobacter baumannii 1915 incubated for 24 hrs by CLSI based broth microdilution method; assay type: functional, organism-based
Lipopolysaccharide (LPS) = test: Disaggregation of FITC-labeled Escherichia coli 0111:B4 LPS assessed as increase in fluorescence intensity at higher concentration
Pseudomonas aeruginosa [3] = test: Inhibition of biofilm formation in multi-drug resistant Pseudomonas aeruginosa CCARM 2095 at 4 to 8 uM by crystal violet staining based analysis relative to control; assay type: functional; details: dose 4-8 µM
Pseudomonas aeruginosa [4] = test: Eradication of biofilm formation in multi-drug resistant Pseudomonas aeruginosa CCARM 2095 at 32 uM incubated for 12 hrs by CLSM analysis relative to control; assay type: functional
Staphylococcus aureus [5] = test: Antibacterial activity against methicillin-resistant Staphylococcus aureus CCARM 3089 incubated for 24 hrs by broth microdilution method; assay type: functional
Pseudomonas aeruginosa [6] = test: Antibacterial activity against multi-drug resistant Pseudomonas aeruginosa CCARM 2095 incubated for 24 hrs by broth microdilution method; assay type: functional
Escherichia coli [7] = test: Induction of resistance development in Escherichia coli KCTC 1682 assessed as fold increase in MIC at 0.5 times MIC measured after 30 passages relative to control; assay type: functional
Enterococcus faecium = test: Antibacterial activity against vancomycin-resistant Enterococcus faecium ATCC 51559 incubated for 24 hrs by CLSI based broth microdilution method; assay type: functional
Acinetobacter baumannii [8] = test: Antibacterial activity against multidrug-resistant Acinetobacter baumannii 329-53 incubated for 24 hrs by CLSI based broth microdilution method; assay type: functional
Acinetobacter baumannii [9] = test: Antibacterial activity against multidrug-resistant Acinetobacter baumannii 329-97 incubated for 24 hrs by CLSI based broth microdilution method; assay type: functional
Acinetobacter baumannii [10] = test: Antibacterial activity against carbapenem-resistant Acinetobacter baumannii CCARM 12005 incubated for 24 hrs by CLSI based broth microdilution method; assay type: functional
Acinetobacter baumannii [11] = test: Antibacterial activity against carbapenem-resistant Acinetobacter baumannii NMS 1707 incubated for 24 hrs by CLSI based broth microdilution method; assay type: functional
Acinetobacter baumannii [12] = test: Antibacterial activity against carbapenem-resistant Acinetobacter baumannii NMS 1915 incubated for 24 hrs by CLSI based broth microdilution method; assay type: functional
[13] = Hemolytic activity in sheep RBC incubated for 1 hr by absorbance based assay; assay type: toxicity, cell-based, Ovis aries; details: erythrocyte
Escherichia coli [14] = test: Induction of inner membrane permeabilization in Escherichia coli KCTC 1682 at MIC by PI staining based flow cytometry (reference value: 1.51 %); assay type: functional
Staphylococcus aureus [15] = test: Bactericidal activity against methicillin-resistant Staphylococcus aureus CCARM 3089 at 128 to 512 uM incubated for 12 hrs by time-kill assay; assay type: functional, organism-based; details: dose 128-512 µM
Pseudomonas aeruginosa [16] = test: Bactericidal activity against multidrug-resistant Pseudomonas aeruginosa CCARM 2095 at 128 to 512 uM incubated for 12 hrs by time-kill assay; assay type: functional, organism-based; details: dose 128-512 µM
Bacillus subtilis = test: Antibacterial activity against Bacillus subtilis KCTC 3068 incubated for 24 hrs by CLSI based broth microdilution method; assay type: functional
[17] = Hydrophobicity of compound assessed as retention time by RP-HPLC analysis; assay type: physicochemical
Staphylococcus aureus [18] = test: Antibacterial activity against Staphylococcus aureus KCTC 1621 incubated for 24 hrs by CLSI based broth microdilution method; assay type: functional
[19] = test system: Staphylococcus epidermidis; test: Antibacterial activity against Staphylococcus epidermidis KCTC 1917 incubated for 24 hrs by CLSI based broth microdilution method; assay type: functional
Staphylococcus aureus [20] = test: Antibacterial activity against methicillin-resistant Staphylococcus aureus CCARM 3089 incubated for 24 hrs by CLSI based broth microdilution method; assay type: functional
Staphylococcus aureus [21] = test: Antibacterial activity against methicillin-resistant Staphylococcus aureus CCARM 3090 incubated for 24 hrs by CLSI based broth microdilution method; assay type: functional
Staphylococcus aureus [22] = test: Antibacterial activity against methicillin-resistant Staphylococcus aureus CCARM 3095 incubated for 24 hrs by CLSI based broth microdilution method; assay type: functional
Escherichia coli [23] = test: Antibacterial activity against Escherichia coli KCTC 1682 incubated for 24 hrs by CLSI based broth microdilution method; assay type: functional
Pseudomonas aeruginosa [24] = test: Antibacterial activity against Pseudomonas aeruginosa KCTC 1637 incubated for 24 hrs by CLSI based broth microdilution method; assay type: functional
Salmonella typhimurium = test: Antibacterial activity against Salmonella typhimurium KCTC 1926 incubated for 24 hrs by CLSI based broth microdilution method; assay type: functional, Salmonella enterica subsp. enterica serovar Typhimurium; details: Salmonella enterica
Pseudomonas aeruginosa [25] = test: Antibacterial activity against multidrug-resistant Pseudomonas aeruginosa CCARM 2095 incubated for 24 hrs by CLSI based broth microdilution method; assay type: functional
Pseudomonas aeruginosa [26] = test: Antibacterial activity against multidrug-resistant Pseudomonas aeruginosa CCARM 2109 incubated for 24 hrs by CLSI based broth microdilution method; assay type: functional
[27] = Hemolytic activity in sheep RBC at 256 uM incubated for 1 hr by absorbance based assay; assay type: toxicity, cell-based, Ovis aries, Erythrocyte; details: sheep red blood cells, read-out: Activity
[28] = Effect on secondary structure of drug in PBS assessed as formation of random coil structure at 150 uM by CD analysis; assay type: physicochemical; details: buffer
[29] = Effect on secondary structure of drug in TFE assessed as fold increase in formation of alpha-helical conformation at 150 uM by CD analysis relative to HVF18; assay type: physicochemical
[30] = Effect on secondary structure of drug in SDS assessed as fold increase in formation of alpha-helical conformation at 150 uM by CD analysis relative to HVF18; assay type: physicochemical
[31] = Effect on secondary structure of drug in LPS assessed as fold increase in formation of alpha-helical conformation at 150 uM by CD analysis relative to HVF18; assay type: physicochemical

Molecule	MIC (Enterococcus faecium) [µM]	MIC (Acinetobacter baumannii [8]) [µM]	MIC (Acinetobacter baumannii [9]) [µM]	MIC (Acinetobacter baumannii [10]) [µM]	MIC (Acinetobacter baumannii [11]) [µM]	MIC (Acinetobacter baumannii [12]) [µM]	HC10 [13] [µM]	MIC (Bacillus subtilis) [µM]	Retention_time [17] [min]	MIC (Staphylococcus aureus [18]) [µM]	MIC [19] [µM]	MIC (Staphylococcus aureus [20]) [µM]	MIC (Staphylococcus aureus [21]) [µM]	MIC (Staphylococcus aureus [22]) [µM]	MIC (Escherichia coli [23]) [µM]	MIC (Pseudomonas aeruginosa [24]) [µM]	MIC (Salmonella typhimurium) [µM]	MIC (Pseudomonas aeruginosa [25]) [µM]	MIC (Pseudomonas aeruginosa [26]) [µM]	hemolysis at 1 h, 256 µM [27] [%]	other results
C[C@@H](O)[C@H]1C(=O)N2C(C(=O)O)=C(SCCNC=N)C[C@H]12	–	–	–	–	–	–	–	–	–	–	–	–	–	–	–	–	–	–	–	–	Activity (Acinetobacter baumannii [1]): inactive; Activity (Acinetobacter baumannii [2]): inactive
CC(C)CCCCC(=O)N[C@@H](CCN)C(=O)N[C@H](C(=O)N[C@@H](CCN)C(=O)N[C@H]1CCNC(=O)[C@H]([C@@H](C)O)NC(=O)[C@H](CCN)NC(=O)[C@H](CCN)NC(=O)[C@H](CC(C)C)NC(=O)[C@@H](Cc2ccccc2)NC(=O)[C@@H](CCN)NC1=O)[C@@H](C)O.CC[C@H](C)CCCCC(=O)N[C@@H](CCN)C(=O)N[C@H](C(=O)N[C@@H](CCN)C(=O)N[C@H]1CCNC(=O)[C@H]([C@@H](C)O)NC(=O)[C@H](CCN)NC(=O)[C@H](CCN)NC(=O)[C@H](CC(C)C)NC(=O)[C@@H](Cc2ccccc2)NC(=O)[C@@H](CCN)NC1=O)[C@@H](C)O (X1-[Dab]T[Dab][Dab][dDab][dF]L[Dab][Dab]T; lactam 4-C)	–	–	–	–	–	–	–	–	–	–	–	–	–	–	–	–	–	–	–	–	Activity (Lipopolysaccharide (LPS)): inactive
CC[C@H](C)[C@H](NC(=O)[C@H](CCCCN)NC(=O)[C@H](CCC(=O)O)NC(=O)[C@H](CCCCN)NC(=O)[C@H](CO)NC(=O)[C@H](CCCCN)NC(=O)[C@H](CCCNC(=N)N)NC(=O)[C@H](Cc1ccccc1)NC(=O)[C@H](Cc1ccccc1)NC(=O)[C@H](CC(=O)O)NC(=O)CNC(=O)[C@H](CC(C)C)NC(=O)[C@@H](N)CC(C)C)C(=O)NCC(=O)N[C@@H](CCCCN)C(=O)N[C@@H](CCC(=O)O)C(=O)N[C@@H](Cc1ccccc1)C(=O)N[C@@H](CCCCN)C(=O)N[C@@H](CCCNC(=N)N)C(=O)N[C@H](C(=O)N[C@H](C(=O)N[C@@H](CCC(N)=O)C(=O)N[C@@H](CCCNC(=N)N)C(=O)N[C@H](C(=O)N[C@@H](CCCCN)C(=O)N[C@@H](CC(=O)O)C(=O)N[C@@H](Cc1ccccc1)C(=O)N[C@@H](CC(C)C)C(=O)N[C@@H](CCCNC(=N)N)C(=O)N[C@@H](CC(N)=O)C(=O)N[C@@H](CC(C)C)C(=O)N[C@H](C(=O)N1CCC[C@H]1C(=O)N[C@@H](CCCNC(=N)N)C(=O)N[C@H](C(=O)N[C@@H](CCC(=O)O)C(=O)N[C@@H](CO)C(=O)O)[C@@H](C)O)C(C)C)[C@@H](C)CC)C(C)C)[C@@H](C)CC [CATHELICIDIN]	–	–	–	–	–	–	–	–	–	–	–	–	–	–	–	–	–	–	–	–	inhibition (INH) (Pseudomonas aeruginosa [3]): >50%; Activity (Pseudomonas aeruginosa [4]): >50%
O=C(N[C@H](CO)[C@H](O)c1ccc([N+](=O)[O-])cc1)C(Cl)Cl [CHLORAMPHENICOL]	–	–	–	–	–	–	–	–	–	–	–	–	–	–	–	–	–	–	–	–	MIC (Staphylococcus aureus [5]): 1020 µM (≈ 331 µg/mL); MIC (Pseudomonas aeruginosa [6]): 4.1 mM (≈ 1320 µg/mL)
O=C(O)c1cn(C2CC2)c2cc(N3CCNCC3)c(F)cc2c1=O [CIPROFLOXACIN]	–	–	–	–	–	–	–	–	–	–	–	–	–	–	–	–	–	–	–	–	fold change (FC) (Escherichia coli [7]): 8192; MIC (Staphylococcus aureus [5]): 1020 µM (≈ 339 µg/mL); MIC (Pseudomonas aeruginosa [6]): 1.02 mM (≈ 339 µg/mL)
CC[C@H](C)[C@H](NC(=O)CN)C(=O)NCC(=O)N[C@@H](C)C(=O)N[C@H](C(=O)N[C@@H](CC(C)C)C(=O)N[C@@H](CCCCN)C(=O)N[C@H](C(=O)N[C@@H](CC(C)C)C(=O)N[C@H](C(=O)N[C@H](C(=O)NCC(=O)N[C@@H](CC(C)C)C(=O)N1CCC[C@H]1C(=O)N[C@@H](C)C(=O)N[C@@H](CC(C)C)C(=O)N[C@H](C(=O)N[C@@H](CO)C(=O)N[C@@H](Cc1c[nH]c2ccccc12)C(=O)N[C@H](C(=O)N[C@@H](CCCCN)C(=O)N[C@@H](CCCNC(=N)N)C(=O)N[C@@H](CCCCN)C(=O)N[C@@H](CCCNC(=N)N)C(=O)N[C@@H](CCC(N)=O)C(=O)N[C@@H](CCC(N)=O)C(N)=O)[C@@H](C)CC)[C@@H](C)CC)[C@@H](C)O)[C@@H](C)O)C(C)C)C(C)C [MELITTIN]	2 (≈ 5.69 µg/mL)	2 (≈ 5.69 µg/mL)	2 (≈ 5.69 µg/mL)	8 (≈ 22.8 µg/mL)	8 (≈ 22.8 µg/mL)	4 (≈ 11.4 µg/mL)	2.2	–	–	–	–	–	–	–	–	–	–	–	–	–	Activity (Escherichia coli [14]): ~100%
Cc1onc(-c2ccccc2)c1C(=O)N[C@@H]1C(=O)N2[C@@H]1SC(C)(C)[C@@H]2C(=O)O [OXACILLIN]	–	–	–	–	–	–	–	–	–	–	–	–	–	–	–	–	–	–	–	–	MIC (Staphylococcus aureus [5]): 2050 µM (≈ 822 µg/mL); MIC (Pseudomonas aeruginosa [6]): 4.1 mM (≈ 1640 µg/mL); Activity (Staphylococcus aureus [15]): inactive; Activity (Pseudomonas aeruginosa [16]): inactive
CN(C)[C@@H]1C(O)=C(C(N)=O)C(=O)[C@@]2(O)C(O)=C3C(=O)c4c(O)cccc4[C@@](C)(O)[C@H]3C[C@@H]12 [TETRACYCLINE]	–	–	–	–	–	–	–	–	–	–	–	–	–	–	–	–	–	–	–	–	fold change (FC) (Escherichia coli [7]): 256
H-GVFRLKKWIQKVIKQWGK-NH2	8	8	1	4	2	2	212	4	25.16	8	4	8	8	8	8	8	4	4	16	12.2	Activity [28]: Active; fold change (FC) [29]: ~ 5; fold change (FC) [30]: ~ 5; fold change (FC) [31]: ~ 5
H-GVFRLKKWIQKVIRQWGR-NH2	8	4	2	4	2	2	122	2	25.15	8	4	8	8	4	8	8	4	2	16	21.2	Activity [28]: Active; fold change (FC) [29]: ~ 5; fold change (FC) [30]: ~ 5; fold change (FC) [31]: ~ 5
H-GVFRLKKWIRKVIRRWGR-NH2	4	8	2	8	8	4	116	4	22.99	8	8	4	4	8	16	8	4	2	16	20.4	Activity [28]: Active; fold change (FC) [29]: ~ 5; fold change (FC) [30]: ~ 5; fold change (FC) [31]: ~ 5
H-HVFRLKKWIQKVIDQFGE-OH	> 128	4	4	4	32	64	> 256	32	25.53	128	16	> 128	> 128	> 128	32	128	32	128	> 128	7.8	–
